# Counter-ions that a name gives are not always drawn.
# Target: T1, HCV1b NS5B polymerase delta 21 (Hepatitis C virus genotype 1b, UniProt P26663)
# T1 construct: purified HCV1b NS5B polymerase delta 21
# Assay: RNA-Dependent RNA HCV NS5B (Polymerase) Assay and IC50 Determination
# Type: biochemical
# Method in brief: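 Purified NS5B Δ21 (0.6 μg) with polyA:U16 template, 10 μM UTP plus α-32P UTP in Tris-HCl pH 7.5, 5 mM MgCl2, 0.5% Triton X-100, 60 min at 23°C with varied compound concentrations. Radiolabelled RNA captured on filters, quantified by phosphorimaging; IC50 from triplicate assays.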
# T1 sequence (P26663 2420-2989): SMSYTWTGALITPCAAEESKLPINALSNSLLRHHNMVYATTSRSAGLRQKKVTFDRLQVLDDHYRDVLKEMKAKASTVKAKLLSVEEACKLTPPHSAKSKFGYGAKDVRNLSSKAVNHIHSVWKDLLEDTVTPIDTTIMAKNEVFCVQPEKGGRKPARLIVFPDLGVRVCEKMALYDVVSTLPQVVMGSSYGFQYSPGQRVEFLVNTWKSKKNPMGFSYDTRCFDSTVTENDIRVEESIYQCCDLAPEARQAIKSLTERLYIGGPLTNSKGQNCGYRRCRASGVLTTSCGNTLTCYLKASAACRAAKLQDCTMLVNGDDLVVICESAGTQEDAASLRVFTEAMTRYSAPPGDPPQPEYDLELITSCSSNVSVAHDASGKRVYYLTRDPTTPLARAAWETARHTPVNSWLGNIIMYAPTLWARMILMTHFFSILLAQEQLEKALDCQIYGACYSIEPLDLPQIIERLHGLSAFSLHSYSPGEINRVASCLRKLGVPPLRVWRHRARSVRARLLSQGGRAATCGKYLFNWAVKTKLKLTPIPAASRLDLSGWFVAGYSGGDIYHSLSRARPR
row,SMILES,IC50 [µM]
1,"CC1CCC(C2=C(c3cc(-c4ccccc4)sc3C(=O)O)CCN(Cc3ccccc3)C2)CC1 (stereo not drawn) [Example 043, 3-[1-Benzyl-5-(4-methyl-cyclohexyl)-1,2,3,6-tetrahydro-pyridin-4-yl]-5-phenyl-thiophene-2-carboxylic acid]",3 to 10
2,"CC1CCC(C2=C(c3cc(C#CC(C)(C)C)sc3C(=O)O)CN(C)CC2)CC1 (stereo not drawn) [Example 112, 5-(3,3-Dimethyl-but-1-ynyl)-3-[1-methyl-4-(4-methyl-cyclohexyl)-1,2,5,6-tetrahydro-pyridin-3-yl]-thiophene-2-carboxylic acid]",< 3
3,"CCN1CCC(c2cc(-c3ccc(C(=O)O)cc3)sc2C(=O)O)=C(C2CCC(C)CC2)C1 (stereo not drawn) [Example 035, 5-(4-Carboxy-phenyl)-3-[1-ethyl-5-(4-methyl-cyclohexyl)-1,2,3,6-tetrahydro-pyridin-4-yl]-thiophene-2-carboxylic acid]",< 3
4,"CCN1CCC(c2cc(C#CC3CCCC3)sc2C(=O)O)=C(C2CCC(C)CC2)C1 (stereo not drawn) [Example 031, 5-Cyclopentylethynyl-3-[1-ethyl-5-(4-methyl-cyclohexyl)-1,2,3,6-tetrahydro-pyridin-4-yl]-thiophene-2-carboxylic acid]",3 to 10
5,"CC1CC=C(C2=C(c3cc(-c4ccc(NC(=O)c5nccs5)cc4)sc3C(=O)O)CCN(C)C2)CC1 (stereo not drawn) [Example 069, 3-[1-Methyl-5-(4-methyl-cyclohex-1-enyl)-1,2,3,6-tetrahydro-pyridin-4-yl]-5-{4-[(thiazole-2-carbonyl)-amino]-phenyl}-thiophene-2-carboxylic acid]",< 3
6,"COCCN1CCC(C2CCC(C)CC2)=C(c2cc(C#CC(C)(C)C)sc2C(=O)O)C1 (stereo not drawn) [Example 137, 5-(3,3-Dimethyl-but-1-ynyl)-3-[1-(2-methoxy-ethyl)-4-(4-methyl-cyclohexyl)-1,2,5,6-tetrahydro-pyridin-3-yl]-thiophene-2-carboxylic acid]",> 10
7,COC(=O)c1sc(-c2ccc(NC(=O)c3cscn3)cc2)cc1C1=C(C2CCC(C)CC2)CN(C)CC1 (stereo not drawn) [Example 013A],< 3
8,"CCN1CCC(c2cc(-c3cccc(NC(C)=O)c3)sc2C(=O)O)=C(C2CCC(C)CC2)C1 (stereo not drawn) [Example 024, 5-(3-Acetylamino-phenyl)-3-[1-ethyl-5-(4-methyl-cyclohexyl)-1,2,3,6-tetrahydro-pyridin-4-yl]-thiophene-2-carboxylic acid]",> 10
9,"CCNC(=O)N1CCC(c2cc(-c3ccccc3)sc2C(=O)O)=C(C2CCC(C)CC2)C1 (stereo not drawn) [Example 085, 3-[1-Ethylcarbamoyl-5-(4-methyl-cyclohexyl)-1,2,3,6-tetrahydro-pyridin-4-yl]-5-phenyl-thiophene-2-carboxylic acid]",3 to 10
10,"CC1CCC(C2=C(c3cc(-c4ccc(-c5cc6ncccn6n5)cc4)sc3C(=O)O)CCN(Cc3ccccn3)C2)CC1 (stereo not drawn) [Example 141, 3-[5-(4-Methyl-cyclohexyl)-1-pyridin-2-ylmethyl-1,2,3,6-tetrahydro-pyridin-4-yl]-5-(4-pyrazolo[1,5-a]pyrimidin-2-yl-phenyl)-thiophene-2-carboxylic acid]",3 to 10
11,"CC1CCC(C2=C(c3cc(-c4ccccc4)sc3C(=O)O)CCN(C(=O)CCc3ccccc3)C2)CC1 (stereo not drawn) [Example 076, 3-[5-(4-Methyl-cyclohexyl)-1-(3-phenyl-propanoyl)-1,2,3,6-tetrahydropyridin-4-yl]-5-phenyl-thiophene-2-carboxylic acid]",> 10
12,"CC1CCC(C2=C(c3cc(-c4ccc(NC(=O)c5cscn5)c(F)c4)sc3C(=O)O)CCN(C)C2)CC1 (stereo not drawn) [Example 059, 5-{3-Fluoro-4-[(thiazole-4-carbonyl)-amino]-phenyl}-3-[1-methyl-5-(4-methyl-cyclohexyl)-1,2,3,6-tetrahydro-pyridin-4-yl]-thiophene-2-carboxylic acid]",< 3
13,"CC1CCC(C2=C(c3cc(-c4ccc(NC(=O)c5cscn5)cc4F)sc3C(=O)O)CCN(C)C2)CC1 (stereo not drawn) [Example 060, 5-{2-Fluoro-4-[(thiazole-4-carbonyl)-amino]-phenyl}-3-[1-methyl-5-(4-methyl-cyclohexyl)-1,2,3,6-tetrahydro-pyridin-4-yl]-thiophene-2-carboxylic acid]",< 3
14,"CC1CCC(C2=C(c3cc(-c4ccc(-c5cc6nccc(N)n6n5)cc4)sc3C(=O)O)CCN(C)C2)CC1 (stereo not drawn) [Example 132, 5-[4-(7-Amino-pyrazolo[1,5-a]pyrimidin-2-yl)-phenyl]-3-[1-methyl-5-(4-methyl-cyclohexyl)-1,2,3,6-tetrahydro-pyridin-4-yl]-thiophene-2-carboxylic acid, hydrochloride salt]",< 3
15,"CC1CCC(C2=C(c3cc(-c4ccccc4)sc3C(=O)O)CCN(Cc3ccnc(Br)c3)C2)CC1 (stereo not drawn) [Example 144, 3-[1-(2-Bromo-pyridin-4-ylmethyl)-5-(4-methyl-cyclohexyl)-1,2,3,6-tetrahydro-pyridin-4-yl]-5-phenyl-thiophene-2-carboxylic acid]",3 to 10
16,"CC1CCC(C2=C(c3cc(C#CC4CC4)sc3C(=O)O)CN(C)CC2)CC1 (stereo not drawn) [Example 175, 5-Cyclopropylethynyl-3-[1-methyl-4-(4-methyl-cyclohexyl)-1,2,5,6-tetrahydro-pyridin-3-yl]-thiophene-2-carboxylic acid]",< 3
17,"CC1CCC(C2=C(c3cc(C#CC4CC4)sc3C(=O)O)CCN(Cc3ccccn3)C2)CC1 (stereo not drawn) [Example 134, 5-Cyclopropylethynyl-3-[5-(4-methyl-cyclohexyl)-1-pyridin-2-ylmethyl-1,2,3,6-tetrahydro-pyridin-4-yl]-thiophene-2-carboxylic acid]",< 3
18,"CCN1CCC(c2cc(C#CC(C)(C)N(C)C)sc2C(=O)O)=C(C2CCC(C)CC2)C1 (stereo not drawn) [Example 023, 5-(3-Dimethylamino-3-methyl-but-1-ynyl)-3-[1-ethyl-5-(4-methyl-cyclohexyl)-1,2,3,6-tetrahydro-pyridin-4-yl]-thiophene-2-carboxylic acid]",< 3
19,"COC(=O)N1CCC(c2cc(-c3ccccc3)sc2C(=O)O)=C(C2CCC(C)CC2)C1 (stereo not drawn) [Example 074, 4-(2-Carboxy-5-phenyl-thiophen-3-yl)-5-(4-methyl-cyclohexyl)-3,6-dihydro-2H-pyridine-1-carboxylic acid methyl ester]",3 to 10
20,"CC1CCC(C2=C(c3cc(-c4ccccc4)sc3C(=O)O)CCN(CCc3ccccc3)C2)CC1 (stereo not drawn) [Example 078, 3-[5-(4-Methyl-cyclohexyl)-1-phenethyl-1,2,3,6-tetrahydro-pyridin-4-yl]-5-phenyl-thiophene-2-carboxylic acid]",> 10
21,"CC1CCC(C2=C(c3cc(-c4ccccc4)sc3C(=O)O)CCN(C(=O)Cc3nc4ccccn4n3)C2)CC1 (stereo not drawn) [Example 153, 3-[5-(4-Methyl-cyclohexyl)-1-(2-[1,2,4]triazolo[1,5-a]pyridin-2-yl-acetyl)-1,2,3,6-tetrahydro-pyridin-4-yl]-5-phenyl-thiophene-2-carboxylic acid]",3 to 10
22,"CC1CCC(C2=C(c3cc(-c4ccccc4)sc3C(=O)O)CCN(Cc3ccncc3)C2)CC1 (stereo not drawn) [Example 090, 3-[5-(4-Methyl-cyclohexyl)-1-pyridin-4-ylmethyl-1,2,3,6-tetrahydro-pyridin-4-yl]-5-phenyl-thiophene-2-carboxylic acid]",< 3
23,"CC1CCC(C2=C(c3cc(-c4ccccc4)sc3C(=O)O)CCN(Cc3ccc(Cl)cc3)C2)CC1 (stereo not drawn) [Example 086, 3-[1-(4-Chloro-benzyl)-5-(4-methyl-cyclohexyl)-1,2,3,6-tetrahydro-pyridin-4-yl]-5-phenyl-thiophene-2-carboxylic acid]",3 to 10
24,"CCN1CCC(c2cc(-c3ccc(NC(=O)c4ccco4)cc3)sc2C(=O)O)=C(C2CCC(C)CC2)C1 (stereo not drawn) [Example 054, 3-[1-Ethyl-5-(4-methyl-cyclohexyl)-1,2,3,6-tetrahydro-pyridin-4-yl]-5-{4-[(furan-2-carbonyl)-amino]-phenyl}-thiophene-2-carboxylic acid]",< 3
25,"CC1CCC(C2=C(c3cc(C#CC4(Cc5ccccc5)CC4)sc3C(=O)O)CCN(C)C2)CC1 (stereo not drawn) [Example 174, 5-(1-Benzyl-cyclopropylethynyl)-3-[1-methyl-5-(4-methyl-cyclohexyl)-1,2,3,6-tetrahydro-pyridin-4-yl]-thiophene-2-carboxylic acid]",> 10
26,"CC1CCC(C2=C(c3cc(C#CC(C)(C)C)sc3C(=O)O)CCN(CCO)C2)CC1 (stereo not drawn) [Example 168, 5-(3,3-Dimethyl-but-1-ynyl)-3-[1-(2-hydroxy-ethyl)-5-(4-methyl-cyclohexyl)-1,2,3,6-tetrahydro-pyridin-4-yl]-thiophene-2-carboxylic acid]",< 3
27,"CC1CCC(C2=C(c3cc(-c4ccccc4)sc3C(=O)O)CCN(Cc3ccnc(-c4ccc(F)cc4)c3)C2)CC1 (stereo not drawn) [Example 147, 3-[1-[2-(4-Fluoro-phenyl)-pyridin-4-ylmethyl]-5-(4-methyl-cyclohexyl)-1,2,3,6-tetrahydro-pyridin-4-yl]-5-phenyl-thiophene-2-carboxylic acid]",> 10
28,"CC1CCC(C2=C(c3cc(-c4ccccc4)sc3C(=O)O)CCN(Cc3cn(C)c4ccccc34)C2)CC1 (stereo not drawn) [Example 095, 3-[5-(4-Methyl-cyclohexyl)-1-(1-methyl-1H-indol-3-ylmethyl)-1,2,3,6-tetrahydro-pyridin-4-yl]-5-phenyl-thiophene-2-carboxylic acid]",3 to 10
29,"CCN1CCC(c2cc(-c3ccc(NC(=O)c4cc[nH]n4)cc3)sc2C(=O)O)=C(C2CCC(C)CC2)C1 (stereo not drawn) [Example 055, 3-[1-Ethyl-5-(4-methyl-cyclohexyl)-1,2,3,6-tetrahydro-pyridin-4-yl]-5-{4-[(1H-pyrazole-3-carbonyl)-amino]-phenyl}-thiophene-2-carboxylic acid]",< 3
30,"CC1CCC(C2=C(c3cc(-c4cc(F)c(NC(=O)c5cscn5)c(F)c4)sc3C(=O)O)CCN(C)C2)CC1 (stereo not drawn) [Example 166, 5-{3,5-Difluoro-4-[(thiazole-4-carbonyl)-amino]-phenyl}-3-[1-methyl-5-(4-methyl-cyclohexyl)-1,2,3,6-tetrahydro-pyridin-4-yl]-thiophene-2-carboxylic acid]",< 3
